From patent US12606568B2, “SMARCA degraders and uses thereof” (Kymera Therapeutics, Inc., priority 2020, dated 2026)

Target: SMARCA2 (Homo sapiens, UniProt P51531)
Assay: SMARCA2 Western blot MV4-11 degradation
Type: cell-based
Set-up: SMARCA2 and SMARCA4 protein degradation in MV4-11 cells; endogenous in cells; host or cells: MV4-11
Details: for SMARCA2 MSD MV411 degradation 24 h: average Dmax % / DC50: MV4-11 cells; for DC50 / Dmax: 24 h; for DC50: read-out: SMARCA2 MSD MV411 degradation 24 h: Mean external-Abs DC50; for Dmax: MV4-11, MV4-11 cells, read-out: SMARCA2 MSD MV411 degradation 24 h: average Dmax %
Description: Example 54. SMARCA2 and SMARCA 4 Western Blot MV4-11 Degradation
Cells were seeded into 6-well plates (MV4-11: 4×10^6 cells/well/1 ml) and 1 ml of 2× compound solution was added into the well to make the final concentration and the plates were mixed well and incubated for 24 hours (No cytotoxicity was observed). The cell were collected with media and spun at 3000 rpm for 5 minutes. The supernatant was aspirated and the well and the cells were washed with cold PBS once and combined for centrifugation again; the supernatant aspirated again. 200 ul pre-chilled RIPA lysis buffer (Boston BioProducts BP-115D) with protease/phosphatase inhibitor (Roche 05892791001/Roche 04906837001) was directly added into the tube to lyze the cells for 20 minutes on ice. The cell lysate were collected into EP tubes and spun at 13000 rpm for 20 minutes and 72 ul supernatant was transferred to a fresh EP tube containing 18 ul of 5× loading buffer (Beyotime Bio P0015) to make the loading samples. The samples were heated to 100° C. for 10 minutes and cooled to RT and microcentrifuged. 20 ul of samples were loaded onto SDS-PAGE gel (Novex, WG1402BOX) and the gel was run at 80 V for 20 minutes and 120 V for 1.5 hours. The samples were electrotransfer to a NC membrane using wet-transfer method with 250 mA for 2.5 hours. The membrane was blocked with LICOR blocking buffer (LI-COR, 927-50000) for 1 hour. The membrane was washed three times with TBST (CST #9997S), 5 minutes each. Incubation was performed with primary antibody prepared in blocking buffer with 0.1% Tween-20 (Solarbio, P8220) at 4° C. overnight (Anti-SMARCA2/BRM antibody (ab15597) 1:500; Anti-BRG1 antibody [EPR3912] (ab108318) 1:1000; Rabbit anti-Baf180 antibody [EPR15860] (Abcam, ab196022) 1:1000; mouse anti-beta-Actin (8H10D10) (CST #3700) 1:10000). The membrane was washed three times with TBST, 5 minutes each. Incubation with secondary antibody was performed for 1 hour at RT (anti-rabbit IgG (Licor, 926-32211) 1:5000; anti-mouse IgG (LI-COR, 926-68070) 1:5000). The membrane was washed three times with TBST, 5 minutes each and lastly the LiCOR was read.
The letter codes for SMARCA degradation potency (DC50) include: A (<100 nM), B (100-500 nM), C (501-1000 nM), and D (>1000 nM). The letter codes for the percentage of SMARCA degradation after 24 hours (Dmax %) include: A (>90% degradation), B (>70-90% degradation), C (50-70% degradation), and D (<50% degradation).

Sequence of SMARCA2 (P51531 whole entry): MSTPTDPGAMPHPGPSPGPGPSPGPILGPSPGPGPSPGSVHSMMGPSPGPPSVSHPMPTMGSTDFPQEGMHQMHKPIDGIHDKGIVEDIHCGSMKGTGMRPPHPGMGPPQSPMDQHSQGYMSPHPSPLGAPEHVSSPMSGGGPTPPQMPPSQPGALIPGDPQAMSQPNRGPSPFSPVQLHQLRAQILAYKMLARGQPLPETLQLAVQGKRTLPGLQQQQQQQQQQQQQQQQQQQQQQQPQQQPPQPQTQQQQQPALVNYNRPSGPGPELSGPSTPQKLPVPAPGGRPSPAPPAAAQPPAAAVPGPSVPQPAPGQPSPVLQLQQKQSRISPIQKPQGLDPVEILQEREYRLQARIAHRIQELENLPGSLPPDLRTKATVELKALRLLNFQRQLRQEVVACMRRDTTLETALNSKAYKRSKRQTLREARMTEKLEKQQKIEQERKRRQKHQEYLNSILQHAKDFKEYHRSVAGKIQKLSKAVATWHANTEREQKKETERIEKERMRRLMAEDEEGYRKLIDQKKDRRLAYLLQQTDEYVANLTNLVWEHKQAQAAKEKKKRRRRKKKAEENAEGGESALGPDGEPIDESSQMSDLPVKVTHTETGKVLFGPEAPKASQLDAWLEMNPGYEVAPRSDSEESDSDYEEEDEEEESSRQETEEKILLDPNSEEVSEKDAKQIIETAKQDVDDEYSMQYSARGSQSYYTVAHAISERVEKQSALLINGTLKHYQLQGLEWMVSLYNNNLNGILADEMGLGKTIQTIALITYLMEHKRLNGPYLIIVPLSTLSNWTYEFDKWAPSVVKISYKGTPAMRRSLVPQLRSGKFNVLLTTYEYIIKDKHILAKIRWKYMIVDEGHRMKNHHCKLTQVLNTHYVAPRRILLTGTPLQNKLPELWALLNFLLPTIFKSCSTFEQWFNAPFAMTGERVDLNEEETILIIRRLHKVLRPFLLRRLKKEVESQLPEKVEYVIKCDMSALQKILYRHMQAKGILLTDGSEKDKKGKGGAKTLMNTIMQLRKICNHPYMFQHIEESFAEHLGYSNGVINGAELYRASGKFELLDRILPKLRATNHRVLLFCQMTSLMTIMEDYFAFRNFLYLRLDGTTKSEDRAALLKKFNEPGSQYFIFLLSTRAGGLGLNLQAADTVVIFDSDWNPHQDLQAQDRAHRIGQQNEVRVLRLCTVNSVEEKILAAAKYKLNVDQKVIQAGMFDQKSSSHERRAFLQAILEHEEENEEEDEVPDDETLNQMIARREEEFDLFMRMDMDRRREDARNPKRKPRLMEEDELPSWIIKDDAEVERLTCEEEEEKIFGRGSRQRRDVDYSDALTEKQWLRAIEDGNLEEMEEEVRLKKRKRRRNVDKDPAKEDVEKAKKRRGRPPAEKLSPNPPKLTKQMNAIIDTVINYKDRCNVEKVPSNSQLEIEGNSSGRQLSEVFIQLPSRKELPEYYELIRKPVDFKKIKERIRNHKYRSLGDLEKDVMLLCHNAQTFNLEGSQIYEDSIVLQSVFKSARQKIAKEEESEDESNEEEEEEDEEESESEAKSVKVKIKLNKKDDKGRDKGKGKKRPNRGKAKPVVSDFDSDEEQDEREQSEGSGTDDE

Row | SMILES | SMARCA2 MSD MV411 degradation 24 h: average Dmax % | DC50 | Dmax
1 | Cc1ncsc1-c1ccc(CNC(=O)[C@@H]2C[C@@H](O)CN2C(=O)[C@@H](c2cc(OCCCCN3CCC(c4cnc(N5C6CCC5CN(c5cc(-c7ccccc7O)nnc5N)C6)nc4)CC3)no2)C(C)C)cc1 [I-56] | B (B (>70-90% degradation)) | < 100 nM | 
2 | Cc1ncsc1-c1ccc(CNC(=O)[C@@H]2C[C@@H](O)CN2C(=O)[C@@H](NC(=O)C2(F)CC2)C(C)(C)C)c(OC2CCC(N3CCC(c4cnc(N5C6CC[C@@H]5CN(c5cc(-c7ccccc7O)nnc5N)C6)nc4)CC3)CC2)c1 (stereo partly drawn) [I-71, (2S,4R)—N-(2-(((1r,4S)-4-(4-(2-(3-(3-amino-6-(2-hydroxyphenyl)pyridazin-4-yl)-3,8-diazabicyclo[3.2.1]octan-8-yl)pyrimidin-5-yl)piperidin-1-yl)cyclohexyl)oxy)-4-(4-methylthiazol-5-yl)benzyl)-1-((S)-2-(1-fluorocyclopropanecarboxamido)-3,3-dimethylbutanoyl)-4-hydroxypyrrolidine-2-carboxamide] | B (B (>70-90% degradation)) | < 100 nM | 
3 | Cc1ncsc1-c1ccc(CNC(=O)[C@@H]2C[C@@H](O)CN2C(=O)[C@@H](c2cc(N3CCC(CCN4CCC(c5cnc(N6C7CCC6CN(c6cc(-c8ccccc8O)nnc6N)C7)nc5)CC4)CC3)no2)C(C)C)cc1 [I-62, (2S,4R)-1-((2R)-2-(3-(4-(2-(4-(2-(3-(3-amino-6-(2-hydroxyphenyl)pyridazin-4-yl)-3,8-diazabicyclo[3.2.1]octan-8-yl)pyrimidin-5-yl)piperidin-1-yl)ethyl)piperidin-1-yl)isoxazol-5-yl)-3-methylbutanoyl)-4-hydroxy-N-(4-(4-methylthiazol-5-yl)benzyl)pyrrolidine-2-carboxamide] |  | 100 to 500 nM | 50 to 70%
4 | Cc1ncsc1-c1ccc(CNC(=O)[C@@H]2C[C@@H](O)CN2C(=O)[C@@H](NC(=O)CN2C3CCC2CN([C@H]2CC[C@@H](c4cnc(N5C6CCC5CN(c5cc(-c7ccccc7O)nnc5N)C6)nc4)CC2)C3)C(C)(C)C)cc1 [I-77, (2S,4R)-1-((2S)-2-(2-(3-((1s,4R)-4-(2-(3-(3-amino-6-(2-hydroxyphenyl)pyridazin-4-yl)-3,8-diazabicyclo[3.2.1]octan-8-yl)pyrimidin-5-yl)cyclohexyl)-3,8-diazabicyclo[3.2.1]octan-8-yl)acetamido)-3,3-dimethylbutanoyl)-4-hydroxy-N-(4-(4-methylthiazol-5-yl)benzyl)pyrrolidine-2-carboxamide] |  | < 100 nM | 70 to 90%
5 | Cc1cc(C(C(=O)N2C[C@H](O)C[C@H]2C(=O)NCc2ccc(-c3scnc3C)cc2)C(C)CCN2CCC(c3cnc(N4C5CCC4CN(c4cc(-c6ccccc6O)nnc4N)C5)nc3)CC2)on1 (single isomer, unassigned) [I-45] |  | < 100 nM | > 90%
6 | Cc1ncsc1-c1ccc(CNC(=O)[C@@H]2C[C@@H](O)CN2C(=O)[C@H](c2cc(N3CCC(CCN4CCC(c5cnc(N6C7CCC6CN(c6cc(-c8ccccc8O)nnc6N)C7)nc5)CC4)CC3)no2)C(C)C)cc1 [I-63, (2S,4R)-1-((2S)-2-(3-(4-(2-(4-(2-(3-(3-amino-6-(2-hydroxyphenyl)pyridazin-4-yl)-3,8-diazabicyclo[3.2.1]octan-8-yl)pyrimidin-5-yl)piperidin-1-yl)ethyl)piperidin-1-yl)isoxazol-5-yl)-3-methylbutanoyl)-4-hydroxy-N-(4-(4-methylthiazol-5-yl)benzyl)pyrrolidine-2-carboxamide] |  | < 100 nM | > 90%
7 | Cc1ncsc1-c1ccc(CNC(=O)[C@@H]2C[C@@H](O)CN2C(=O)[C@@H](NC(=O)C2CC3(C2)CC(N2CCC(c4cnc(N5CCN(c6cc(-c7ccccc7O)nnc6N)CC5)nc4)CC2)C3)C(C)(C)C)cc1 (stereo partly drawn) [I-65, (2S,4R)-1-((S)-2-(6-(4-(2-(4-(3-amino-6-(2-hydroxyphenyl)pyridazin-4-yl)piperazin-1-yl)pyrimidin-5-yl)piperidin-1-yl)spiro[3.3]heptane-2-carboxamido)-3,3-dimethylbutanoyl)-4-hydroxy-N-(4-(4-methylthiazol-5-yl)benzyl)pyrrolidine-2-carboxamide] |  | < 100 nM | 50 to 70%
8 | Cc1ncsc1-c1ccc(CNC(=O)[C@@H]2C[C@@H](O)CN2C(=O)[C@H](c2cc(OCCCCN3CCC(c4cnc(N5C6CCC5CN(c5cc(-c7ccccc7O)nnc5N)C6)nc4)CC3)no2)C(C)C)cc1 [I-57] |  | < 100 nM | > 90%
9 | Cc1ncsc1-c1ccc(CNC(=O)[C@@H]2C[C@@H](O)CN2C(=O)[C@@H](c2cc(N3CCC(N4CCC(c5cnc(N6C7CCC6CN(c6cc(-c8ccccc8O)nnc6N)C7)nc5)CC4)CC3)no2)C(C)C)cc1 [I-49, (2S,4R)-1-(2-(3-(4-(2-(3-(3-amino-6-(2-hydroxyphenyl)pyridazin-4-yl)-3,8-diazabicyclo[3.2.1]octan-8-yl)pyrimidin-5-yl)-[1,4′-bipiperidin]-1′-yl)isoxazol-5-yl)-3-methylbutanoyl)-4-hydroxy-N-(4-(4-methylthiazol-5-yl)benzyl)pyrrolidine-2-carboxamide] |  | < 100 nM | > 90%
10 | Cc1cc(C(C(=O)N2C[C@H](O)C[C@H]2C(=O)NCc2ccc(-c3scnc3C)cc2)C(C)CCN2CCC(c3cnc(N4C5CCC4CN(c4cc(-c6ccccc6O)nnc4N)C5)nc3)CC2)on1 (stereo partly drawn) [I-44, (2S,4R)-1-(5-(4-(2-(3-(3-amino-6-(2-hydroxyphenyl)pyridazin-4-yl)-3,8-diazabicyclo[3.2.1]octan-8-yl)pyrimidin-5-yl)piperidin-1-yl)-3-methyl-2-(3-methylisoxazol-5-yl)pentanoyl)-4-hydroxy-N-(4-(4-methylthiazol-5-yl)benzyl)pyrrolidine-2-carboxamide] |  | < 100 nM | 70 to 90%
11 | Cc1ncsc1-c1ccc(CNC(=O)[C@@H]2C[C@@H](O)CN2C(=O)[C@@H](NC(=O)C2(F)CC2)C(C)(C)C)c(OCCCCCCN2CCC(c3cnc(N4C5CCC4CN(c4cc(-c6ccccc6O)nnc4N)C5)nc3)CC2)c1 [I-75, (2S,4R)—N-(2-((6-(4-(2-(3-(3-amino-6-(2-hydroxyphenyl)pyridazin-4-yl)-3,8-diazabicyclo[3.2.1]octan-8-yl)pyrimidin-5-yl)piperidin-1-yl)hexyl)oxy)-4-(4-methylthiazol-5-yl)benzyl)-1-((S)-2-(1-fluorocyclopropanecarboxamido)-3,3-dimethylbutanoyl)-4-hydroxypyrrolidine-2-carboxamide] |  | < 100 nM | 70 to 90%
12 | Cc1ncsc1-c1ccc(CNC(=O)[C@@H]2C[C@@H](O)CN2C(=O)[C@@H](NC(=O)C2(F)CC2)C(C)(C)C)c(OCCCCN2CCC(c3cnc(N4C5CCC4CN(c4cc(-c6ccccc6O)nnc4N)C5)nc3)CC2)c1 [I-74] |  | < 100 nM | 70 to 90%
13 | Cc1cc(C(C(=O)N2C[C@H](O)C[C@H]2C(=O)NCc2ccc(-c3scnc3C)cc2)C(C)CCN2CCC(c3cnc(N4C5CCC4CN(c4cc(-c6ccccc6O)nnc4N)C5)nc3)CC2)on1 (single isomer, unassigned) [I-46] | B (B (>70-90% degradation)) | < 100 nM | 
